{
  "source": "patent US8168656B2",
  "about": "“Indoleacetic acid and indenacetic acid derivatives as therapeutic agents with reduced gastrointestinal toxicity” (Vanderbilt University, priority 2009, dated 2012)",
  "assay_in_all_cases": "Time-dependent IC50 COX inhibition assay",
  "type_in_all_cases": "biochemical, murine",
  "key": {"wild type mCOX-2": {"molecular_target": "T1, wild type mCOX-2 (Mus musculus, UniProt Q05769)", "T1 construct": "made in house; host or cells: Sf9 insect cells (baculovirus, pVL1393)", "T1 sequence (Q05769 18-604)": "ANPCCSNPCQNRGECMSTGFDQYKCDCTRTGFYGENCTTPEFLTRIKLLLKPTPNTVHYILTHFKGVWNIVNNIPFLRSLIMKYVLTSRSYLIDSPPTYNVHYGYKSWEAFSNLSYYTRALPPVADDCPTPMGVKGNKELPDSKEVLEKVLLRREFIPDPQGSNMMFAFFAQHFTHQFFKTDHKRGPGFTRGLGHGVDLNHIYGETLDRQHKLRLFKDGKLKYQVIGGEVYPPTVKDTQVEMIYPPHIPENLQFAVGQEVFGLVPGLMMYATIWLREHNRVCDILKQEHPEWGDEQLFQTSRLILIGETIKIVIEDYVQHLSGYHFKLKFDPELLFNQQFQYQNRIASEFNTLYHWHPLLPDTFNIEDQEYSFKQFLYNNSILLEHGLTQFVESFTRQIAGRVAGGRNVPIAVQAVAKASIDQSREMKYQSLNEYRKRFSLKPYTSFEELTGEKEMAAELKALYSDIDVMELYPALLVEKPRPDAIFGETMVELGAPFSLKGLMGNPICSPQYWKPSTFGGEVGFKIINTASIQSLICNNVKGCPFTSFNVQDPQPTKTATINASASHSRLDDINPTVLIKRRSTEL", "conditions": "20 min pre-incubation, then 50 μM AA for 30 s", "protocol": "(§1) These mutated genes were used to assemble baculoviral constructs for large-scale expression in Sf9 cells. Purification of the expressed COX-2 protein was performed through traditional cellular fractionation and classical column chromatography. Activity or inhibition assays were performed in 100 mM Tris-HCl buffer containing 500 μM phenol, with hematin-reconstituted protein. Quantification of cyclooxygenase activity was performed by monitoring substrate (arachidonate or oxygen) consumption in a thermostatted cuvette at 37° C. using a polarographic electrode with a 5300 oxygen monitor (Yellow Springs Instrument Co. Inc., Yellow Springs, Ohio, United States of America). All inhibitors and substrates were solubilized in dimethyl sulfoxide (DMSO). Activity or inhibition assays were performed in 100 mM Tris-HCl buffer containing 500 μM phenol, with hematin-reconstituted protein. Maximal reaction velocity data were obtained from the linear portion of the oxygen uptake curves, and the data were analyzed by nonlinear regression with Prism 4.0 (GraphPad Software, San Diego, Calif., United States of America).\n(§2) Time-dependent inhibition reactions were performed by pre-incubating the inhibitor and enzyme for 17 minutes at 25° C., followed by 3 minutes at 37° C. prior to the addition of 50 μM [1-^14C]-AA for 30 seconds at 37° C. Assays were terminated and analyzed for substrate consumption by thin layer chromatography as previously described (Kalgutkar et al., 2000a).\n(§3) Maximal reaction velocity data were obtained from the linear portion of the oxygen uptake curves, and the data were analyzed by nonlinear regression. Instantaneous inhibition assays were performed with substrate and inhibitor added prior the initiation of the reaction by addition of protein. Time-dependent screening assays were performed by pre-incubating the inhibitor and enzyme for 17 minutes at 25° C., followed by 3 minutes at 37° C. prior to the addition of 50 μM [1-^14C]-arachidonic acid (AA) for 30 seconds at 37° C.\n(§4) Assays were terminated and analyzed for substrate consumption by thin layer chromatography. […] Time-dependent COX inhibition reactions were pre-incubated at 37° C. for varying lengths of time (0-30 minutes) with various concentrations of inhibitor. All reactions were performed with [1-^14C]-AA for 30 seconds at 37° C.; reactions were terminated and analyzed as described above.\n(§5) The COX reaction was allowed to proceed for 30 seconds before termination."}, "mCOX-2^V349L": {"molecular_target": "T2, mCOX-2^V349L (Mus musculus, UniProt Q05769, V335L)", "T2 construct": "made in house; host or cells: Sf9 insect cells (baculovirus, pVL1393)", "T2 sequence (Q05769 18-604 V335L)": "T1 sequence (Q05769 18-604) with V318L", "protocol": "as §1, §2, §3, §4, §5"}, "mCOX-2^V349I": {"molecular_target": "T3, mCOX-2^V349I (Mus musculus, UniProt Q05769, V335I)", "T3 construct": "made in house; host or cells: Sf9 insect cells (baculovirus, pVL1393)", "T3 sequence (Q05769 18-604 V335I)": "T1 sequence (Q05769 18-604) with V318I", "conditions": "20 min pre-incubation, then 50 μM AA for 30 s", "protocol": "as §1, §2, §3, §4, §5"}},
  "note": "Where a chain is given by its changes, count along the chain named.",
  "data": [
    {"smiles": "COc1ccc2c(c1)c(CC(=O)O)cn2C(=O)c1ccc(Cl)cc1", "note": "[DM-INDO, 2-Des-methylindomethacin]", "values": [
      {"measurement": "IC50", "setting": "wild type mCOX-2", "result": 4, "unit": "µM"},
      {"measurement": "inhibition in the time-dependent IC50 assay", "setting": "mCOX-2^V349L", "result": "less than 20%"},
      {"measurement": "IC50", "setting": "mCOX-2^V349L; 20 min pre-incubation, then 50 μM AA for 30 s", "result": "> 16", "unit": "µM"},
      {"measurement": "IC50", "setting": "mCOX-2^V349I", "result": 3, "unit": "µM"}
    ]}
  ]
}
